pEC50: −log10 of the molar value. Values joined by “and” are separate entries in the source; they are usually repeats but may differ in a detail not shown here. Identical values can stand only once. Like-named read-outs stand apart in the source and are kept apart here.
Biological target: T1, particulate guanylyl cyclase receptor A (pGC-A) (Homo sapiens, UniProt P16066)
T1 construct: expressed in transfected cells; host or cells: HEK293
T1 sequence (P16066 33-1061): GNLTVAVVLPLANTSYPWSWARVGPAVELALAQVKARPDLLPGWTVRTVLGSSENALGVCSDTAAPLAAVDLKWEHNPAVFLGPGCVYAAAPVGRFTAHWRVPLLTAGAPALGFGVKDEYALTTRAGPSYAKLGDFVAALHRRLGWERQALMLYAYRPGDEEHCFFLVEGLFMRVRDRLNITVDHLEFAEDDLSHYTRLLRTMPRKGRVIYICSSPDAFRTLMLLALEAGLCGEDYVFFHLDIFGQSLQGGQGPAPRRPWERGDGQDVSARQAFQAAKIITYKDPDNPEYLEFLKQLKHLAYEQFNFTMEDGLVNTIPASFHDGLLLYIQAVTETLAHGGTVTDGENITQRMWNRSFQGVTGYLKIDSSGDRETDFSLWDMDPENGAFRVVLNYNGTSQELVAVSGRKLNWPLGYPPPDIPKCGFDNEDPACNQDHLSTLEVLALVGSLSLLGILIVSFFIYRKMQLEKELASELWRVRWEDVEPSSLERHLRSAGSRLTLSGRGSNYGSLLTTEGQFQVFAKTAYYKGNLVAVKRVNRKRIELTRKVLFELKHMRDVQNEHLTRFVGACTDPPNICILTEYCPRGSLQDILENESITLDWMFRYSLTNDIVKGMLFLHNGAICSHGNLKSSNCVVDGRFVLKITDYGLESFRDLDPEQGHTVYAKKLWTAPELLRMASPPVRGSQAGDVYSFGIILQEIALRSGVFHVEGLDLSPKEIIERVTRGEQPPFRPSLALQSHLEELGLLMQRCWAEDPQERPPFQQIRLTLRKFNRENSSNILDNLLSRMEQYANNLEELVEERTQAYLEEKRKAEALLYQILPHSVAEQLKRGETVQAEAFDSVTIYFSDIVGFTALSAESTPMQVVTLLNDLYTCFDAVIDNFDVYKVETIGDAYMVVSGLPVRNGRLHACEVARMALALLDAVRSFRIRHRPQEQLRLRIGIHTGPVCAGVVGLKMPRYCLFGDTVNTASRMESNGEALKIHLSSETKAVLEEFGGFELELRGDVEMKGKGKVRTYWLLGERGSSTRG
T1 sequence (P01160 124-151 partner limits assumed): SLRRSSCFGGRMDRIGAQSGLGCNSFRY
Assay: cGMP production by HTRF in HEK293 cells overexpressing pGC-A, with ANP
Assay type: cell-based
Conditions: for Emax / Max efficacy: cGMP normalized to maximal amount produced by an EC80 concentration of ANP; for Emax: read-out: Max efficacy; for pEC50: test compound plus EC20 concentration of ANP, cGMP by HTRF
Excerpt: Assay: Generally, the assay monitors the production of cGMP, the second messenger generated by pGC-A, by Time-Resolved Florescence (HTRF) in HEK293 cells overexpressing the pGC-A. pGC-A suspension cells were stimulated in the presence of the test compound and an EC20 concentration of ANP. The quantity of cGMP was detected by competitive immunoassay using Eu^3+ cryptate-labeled anti-cGMP and d2-labeled cGMP and normalized to maximal amount produced by an EC80 concentration of ANP. Compound EC50 values were determined in the primary assay, in the presence or absence of ANP, to determine mode of action as positive modulators and tested for selectivity in the same assay platform but in HEK cells overexpressing the particulate guanylyl cyclase B receptor (pGC-B), of which CNP is the endogenous ligand.
Assay details: 20 nL of 10 μM test compound in DMSO was added to columns 5-48 of 1536 well white high base screening plates (Corning, New York, NY) cells using 550 ECHO acoustic dispenser (Labcyte, San Jose, CA). Alpha-atrial natriuretic peptide (ANP) (Phoenix Pharmaceutics) was prepared as stock aliquots at 5 μM in PBS with 0.1% BSA. An approximate […] concentration of ANP ([…]) in assay buffer (HBSS containing 5 mM HEPES and 0.05% BSA) was added to columns 3-48 at a volume of 1 μL. Assay buffer only was added to column 1 and assay buffer containing a saturating concentration of ANP (5 nM) was added to column 2. HEK293 cells overexpressing GC-A were resuspended in assay media (OptimMem media containing 2% Heat-inactivated Fetal bovine serum and L-glutamine) at a density of 6×10^5 cells/mL and 2 μL were plated in screening plates (1200 cells/well) in suspension using a Bioraptr 2. Plates were spun at 1000 rpm for 1 min and incubated for 30 min at room temperature. 1.5 μL d2-labeled cGMP followed by 1.5 μL Eu^3+ cryptate-labeled anti-cGMP cGMP detection kit (CiBio; #62GM2PEC) prepared according to manufacturer's protocol were added to all wells using a Bioraptr 2 and TR-FRET signal was detected on an EnVision detector (PerkinElmer). Wells treated with 0.3% DMSO only serve as blank controls (column 1); wells treated with 0.3% DMSO and 5 nM ANP (columns 2) serve as positive controls and wells treated with 0.3% DMSO and […] ANP (columns 3-4) serve as negative controls.

[1] = HEK293, HEK293 cells overexpressing pGC-A
[2] = HEK293 cells overexpressing pGC-A

Compound | Emax [1] | pEC50 [2] | Max efficacy [2] | Emax [2]
N[C@H]1CCCC(C(=O)Nc2nc3c(F)cc(F)cc3s2)C1 (stereo partly shown) [210C] | 92% |  |  | 
N[C@H]1CCC[C@H](C(=O)Nc2nc3c(F)cc(F)cc3s2)C1 [210C] |  | 5.72 |  | 
N[C@@H]1CCC[C@@H](C(=O)Nc2nc3c(F)cc(F)cc3s2)C1 [210T] | 86% | 6.30 |  | 
CN(C)CCN1CCCC(C(=O)Nc2nc3c(F)cc(F)cc3[nH]2)C1 (stereo not shown) [249a] |  | < 5.30 |  | 
O=C(Nc1nc2c(F)cc(F)cc2[nH]1)C1CCCNC1 (stereo not shown) [249b] | 72% |  |  | 
CN(C)CCN1CCCC(C(=O)Nc2nc3c(C(F)(F)F)cccc3s2)C1 (stereo not shown) [compound 002] |  | < 5.00 |  | 
CN(C)CCN1CCCC(C(=O)Nc2nc3c(-c4ccccc4)cccc3s2)C1 (stereo not shown) [compound 003] |  | < 5.00 |  | 
CN(C)CCN1CCCC(C(=O)Nc2nc3c(Cc4ccccc4)cccc3s2)C1 (stereo not shown) [compound 004] |  | < 5.00 |  | 
Cc1cccc2sc(NC(=O)C3CCCN(CCN(C)C)C3)nc12 (stereo not shown) [compound 005] |  | < 5.00 |  | 
COc1cccc2sc(NC(=O)C3CCCN(CCN(C)C)C3)nc12 (stereo not shown) [compound 006] |  | < 5.00 |  | 
CN(C)CCN1CCCC(C(=O)Nc2nc3c(C#N)cccc3s2)C1 (stereo not shown) [compound 007] | 41% | 6.22 |  | 
CN(C)CCN1CCCC(C(=O)Nc2nc3cc(F)ccc3s2)C1 (stereo not shown) [compound 010] |  | < 5.00 |  | 
CN(C)CCN1CCCC(C(=O)Nc2nc3cc(Cl)ccc3s2)C1 (stereo not shown) [compound 011] |  | < 5.00 |  | 
COc1ccc2sc(NC(=O)C3CCCN(CCN(C)C)C3)nc2c1 (stereo not shown) [compound 013] |  | < 5.00 |  | 
CN(C)CCN1CCCC(C(=O)Nc2nc3ccc(F)cc3s2)C1 (stereo not shown) [compound 015] |  | < 5.00 |  | 
CN(C)CCN1CCCC(C(=O)Nc2nc3ccc(Cl)cc3s2)C1 (stereo not shown) [compound 016] | 94% | 5.02 |  | 
Cc1ccc2nc(NC(=O)C3CCCN(CCN(C)C)C3)sc2c1 (stereo not shown) [compound 017] |  | < 5.00 |  | 
COc1ccc2nc(NC(=O)C3CCCN(CCN(C)C)C3)sc2c1 (stereo not shown) [compound 018] |  | < 5.00 |  | 
CN(C)CCN1CCCC(C(=O)Nc2nc3c(F)cc(C(F)(F)F)cc3s2)C1 (stereo not shown) [compound 019] |  | < 5.30 |  | 
Cc1cc(F)c2nc(NC(=O)C3CCCN(CCN(C)C)C3)sc2c1 (stereo not shown) [compound 020] | 101% | 6.05 |  | 
COc1cc(F)c2nc(NC(=O)C3CCCN(CCN(C)C)C3)sc2c1 (stereo not shown) [compound 021] |  | 5.17 and 5.77 | 77% | 
CN(C)CCN1CCCC(C(=O)Nc2nc3c(F)cc(-c4ccccc4)cc3s2)C1 (stereo not shown) [compound 022] |  | < 5.30 |  | 
COC(=O)c1cc(F)c2nc(NC(=O)C3CCCN(CCN(C)C)C3)sc2c1 (stereo not shown) [compound 023] |  | < 5.30 |  | 
CCOc1cc(F)c2nc(NC(=O)C3CCCN(CCN(C)C)C3)sc2c1 (stereo not shown) [compound 026] |  | < 5.30 |  | 
COCc1cc(F)c2nc(NC(=O)C3CCCN(CCN(C)C)C3)sc2c1 (stereo not shown) [compound 029] |  | < 5.30 |  | 
COCc1cc(F)c2nc(NC(=O)C3CCCNC3)sc2c1 (stereo not shown) [compound 030] |  | < 5.30 |  | 
CN(C)CCN1CCCC(C(=O)Nc2nc3cccc(F)c3s2)C1 (stereo not shown) [compound 032] | 85% | 5.37 |  | 

Compound | Emax [1] | pEC50 [2] | Max efficacy [2] | Emax [2]
CN(C)CCN1CCCC(C(=O)Nc2nc3cccc(Cl)c3s2)C1 (stereo not shown) [compound 033] | 82% | 5.66 and 5.92 | 63% | 
Cc1cccc2nc(NC(=O)C3CCCN(CCN(C)C)C3)sc12 (stereo not shown) [compound 034] | 99% | 5.23 |  | 
CN(C)CCN1CCCCC1C(=O)Nc1nc2c(F)cc(F)cc2s1 (stereo not shown) [compound 037] | 96% |  |  | 
CN1CCC(N2CCCCC2C(=O)Nc2nc3c(F)cc(F)cc3s2)C1 (stereo not shown) [compound 038] |  | < 5.30 |  | 
CN(C)CCCN1CCCCC1C(=O)Nc1nc2c(F)cc(F)cc2s1 (stereo not shown) [compound 041] | 101% | 5.82 |  | 
O=C(Nc1nc2c(F)cc(F)cc2s1)C1CNCCN1C(=O)OCc1ccccc1 (stereo not shown) [compound 043] |  | < 5.30 |  | 
CN(C)CCN1CCOC(C(=O)Nc2nc3c(F)cc(F)cc3s2)C1 (stereo not shown) [compound 046] |  | < 5.30 |  | 
O=C(Nc1nc2c(F)cc(F)cc2s1)C1CNCCO1 (stereo not shown) [compound 047] |  | < 5.30 |  | 
O=C(Nc1nc2c(F)cc(F)cc2s1)C1CCC2CCC1N2 (stereo not shown) [compound 049] |  | 6.52 |  | 98%
CN(C)CCN1CCCC1C(=O)Nc1nc2c(F)cc(F)cc2s1 (stereo not shown) [compound 053] | 92% | 6.10 |  | 
CN(C)CCN1CCCCC(C(=O)Nc2nc3c(F)cc(F)cc3s2)C1 (stereo not shown) [compound 055] | 89% | 6.22 |  | 
CN(C)CCN1CC(C(=O)Nc2nc3c(F)cc(F)cc3s2)Cc2ccccc21 (stereo not shown) [compound 057] |  | < 5.30 |  | 
O=C(Nc1nc2c(F)cc(F)cc2s1)C1CNc2ccccc2C1 (stereo not shown) [compound 058] | 95% | 5.59 |  | 
CN(C)CCN1Cc2ccccc2C(C(=O)Nc2nc3c(F)cc(F)cc3s2)C1 (stereo not shown) [compound 059] |  | < 5.30 |  | 
O=C(Nc1nc2c(F)cc(F)cc2s1)C1CNCc2ccccc21 (stereo not shown) [compound 060] |  | < 5.30 |  | 
CN(C)CCN1CC2(C(=O)Nc3nc4c(Cl)cc(F)cc4s3)CCC1CC2 [compound 061] | 94% | 5.99 |  | 
O=C(Nc1nc2c(F)cc(F)cc2s1)C12CCC(CC1)NC2 [compound 062] | 92% | 5.47 |  | 
CN(C)c1ccc(N2CCCC(C(=O)Nc3nc4c(F)cc(F)cc4s3)C2)cc1 (stereo not shown) [compound 066] | 77% | 5.72 |  | 
O=C(Nc1nc2c(F)cc(F)cc2s1)C1CCCN(CCn2cccn2)C1 (stereo not shown) [compound 067] | 88% | 6.15 |  | 
O=C(Nc1nc2c(F)cc(F)cc2s1)C1CCCN(CCn2ccnc2)C1 (stereo not shown) [compound 068] | 89% | 6.05 |  | 
CN1CCC(N2CCCC(C(=O)Nc3nc4c(F)cc(F)cc4s3)C2)C1 (stereo not shown) [compound 069] |  | 6.70 to 7.52 | 89-98% | 
CN1CCCC(N2CCCC(C(=O)Nc3nc4c(F)cc(F)cc4s3)C2)C1 (stereo not shown) [compound 070] |  |  | 71% and 85% | 
CN1CCC(N2CCCC(C(=O)Nc3nc4c(F)cc(F)cc4s3)C2)CC1 (stereo not shown) [compound 071] | 93% | 6.70 |  | 
CN1CCCC1CN1CCCC(C(=O)Nc2nc3c(F)cc(F)cc3s2)C1 (stereo not shown) [compound 072] |  | 5.92 and 6.00 | 118% and 94% | 
CN1CCCCC1CN1CCCC(C(=O)Nc2nc3c(F)cc(F)cc3s2)C1 (stereo not shown) [compound 073] | 94% | 6.40 |  | 
CN1CCCC(CN2CCCC(C(=O)Nc3nc4c(F)cc(F)cc4s3)C2)C1 (stereo not shown) [compound 074] | 80% | 5.96 |  | 
CN1CCC(CN2CCCC(C(=O)Nc3nc4c(F)cc(F)cc4s3)C2)CC1 (stereo not shown) [compound 075] | 92% | 5.82 |  | 
